Measured values published in patent US10208056B2, “Condensed tricyclic compounds as protein kinase inhibitors” (FUNDACIÓN DEL SECTOR PÚBLICO ESTATAL CENTRO NACIONAL DE …, priority 2015, dated 2019).

Key:
[1] = biological target: Haspin kinase (Homo sapiens (Human), UniProt Q8TF76); assay: Haspin kinase assay (ADP-Glo); assay type: biochemical; conditions: ATP 150 μM
Description: The kinase assay relies on ADP-Glo^KM biochemical kinase assay (Promega). This is a luminescent kinase assay that measures ADP formed from a kinase reaction. Then ADP is converted into ATP, which is transformed into a light signal by Ultra-Glo™ Luciferase. The luminescent signal positively correlates with kinase activity. The assay measures the intrinsic ATPase activity (in the absence of peptidic substrate as phosphate acceptor).
The enzyme was purchase from Invitrogen (PV5708) as the kinase domain of GST tagged recombinant human proteins.
Assay conditions were as indicated by the kit manufacturers with the following adaptations: • Assay buffer: 15 mM HEPES pH 7.4, 20 mM NaCl, 1 mM EGTA, 0.02% Tween 20, 10 mM MgCl2, 0.1 mg/ml BGG • Assay volume: 20 μl • Incubation time and temperature: 60 min at 30° C. • Haspin concentration: 20 nM • ATP concentration: 150 μM • Tested compound: Serial 1:3 dilutions • Final DMSO concentration in the assay: 1%
Assays were performed in 384-well plates. The final read out was generated using an EnVision plate reader (Perkin-Elmer). Luminescent relative units are normalized against the control activity included for each compound (i.e., 100% Haspin activity, without compound) and the percentage of inhibition is calculated.

[2] = biological target: CDK8/Cyclin C (Homo sapiens (Human), UniProt P49336); assay: CDK8/Cyclin C binding assay (LanthaScreen Eu-Kinase Binding Assay); conditions: binding assay
Sequence of CDK8/Cyclin C (P49336 whole entry): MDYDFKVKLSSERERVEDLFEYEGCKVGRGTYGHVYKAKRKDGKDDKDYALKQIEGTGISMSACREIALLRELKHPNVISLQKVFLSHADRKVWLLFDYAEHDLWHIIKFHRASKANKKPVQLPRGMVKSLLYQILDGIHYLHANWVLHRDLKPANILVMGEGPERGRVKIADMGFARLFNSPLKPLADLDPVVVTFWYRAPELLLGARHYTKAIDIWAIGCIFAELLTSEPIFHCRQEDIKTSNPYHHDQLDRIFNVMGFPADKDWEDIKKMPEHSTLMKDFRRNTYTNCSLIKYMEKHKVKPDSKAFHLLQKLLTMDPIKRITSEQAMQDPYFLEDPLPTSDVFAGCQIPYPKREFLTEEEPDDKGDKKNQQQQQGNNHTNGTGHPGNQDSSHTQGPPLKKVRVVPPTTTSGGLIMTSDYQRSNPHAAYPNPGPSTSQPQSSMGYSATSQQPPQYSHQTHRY
Sequence of CDK8/Cyclin C (P24863 whole entry partner): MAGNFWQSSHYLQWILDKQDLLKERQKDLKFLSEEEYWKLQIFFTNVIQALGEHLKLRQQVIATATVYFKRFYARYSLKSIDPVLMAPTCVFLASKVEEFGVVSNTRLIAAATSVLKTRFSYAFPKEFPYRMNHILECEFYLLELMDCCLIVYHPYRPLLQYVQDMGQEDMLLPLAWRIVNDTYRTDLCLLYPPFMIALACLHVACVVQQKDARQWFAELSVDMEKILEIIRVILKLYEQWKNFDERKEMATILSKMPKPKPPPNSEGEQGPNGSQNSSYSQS
Method: The enzyme has been purchase from Invitrogen (PV4402) as a dimer of full-length His-tagged recombinant human proteins.
(§1) Assays were performed in 384-well plates. The final read out was generated using an EnVision plate reader (Perkin-Elmer).

[3] = biological target: CDK19/Cyclin C (Homo sapiens (Human), UniProt Q9BWU1); assay: CDK19/Cyclin C binding assay (LanthaScreen Eu-Kinase Binding Assay); conditions: read-out: CDK19-CYCC IC50
Sequence of CDK19/Cyclin C (Q9BWU1 whole entry): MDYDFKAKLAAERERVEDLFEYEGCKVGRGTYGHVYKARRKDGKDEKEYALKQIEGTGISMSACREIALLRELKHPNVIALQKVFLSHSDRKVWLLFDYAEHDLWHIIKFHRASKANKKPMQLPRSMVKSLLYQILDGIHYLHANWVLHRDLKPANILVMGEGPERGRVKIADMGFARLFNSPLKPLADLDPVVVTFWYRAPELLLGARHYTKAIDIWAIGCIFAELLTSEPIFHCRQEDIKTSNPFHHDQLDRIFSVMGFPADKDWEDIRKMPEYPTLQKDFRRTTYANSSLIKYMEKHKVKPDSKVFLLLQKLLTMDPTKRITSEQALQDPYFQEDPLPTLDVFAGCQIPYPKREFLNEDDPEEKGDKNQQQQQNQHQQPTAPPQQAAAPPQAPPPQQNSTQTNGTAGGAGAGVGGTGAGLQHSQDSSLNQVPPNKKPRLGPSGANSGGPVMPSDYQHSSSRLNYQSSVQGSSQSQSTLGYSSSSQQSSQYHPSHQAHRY
Sequence of CDK19/Cyclin C (P24863 whole entry partner): as the sequence (P24863 whole entry partner) above
Method: The binding assay relies on the LanthaScreen™ Eu-Kinase Binding Assay (Invitrogen).
Assay conditions were as indicated by the kit manufacturers with the following adaptations: • Assay buffer: 50 mM HEPES, pH 7.5, 1 mM EGTA, 0.01% Brij-35, 10 mM MgCl2 • Assay volume: 20 μl • Incubation time and temperature: 60 min at 25° C. • Cdk19-Cyclin C concentration: 2 nM • Tracer concentration: 20 nM • (Eu)-labelled anti-GST antibody concentration: 2 nM • Tested compound: Serial 1:3 dilutions • Final DMSO concentration in the assay: 1%
as §1

Sequence of Haspin kinase (Q8TF76 484-798): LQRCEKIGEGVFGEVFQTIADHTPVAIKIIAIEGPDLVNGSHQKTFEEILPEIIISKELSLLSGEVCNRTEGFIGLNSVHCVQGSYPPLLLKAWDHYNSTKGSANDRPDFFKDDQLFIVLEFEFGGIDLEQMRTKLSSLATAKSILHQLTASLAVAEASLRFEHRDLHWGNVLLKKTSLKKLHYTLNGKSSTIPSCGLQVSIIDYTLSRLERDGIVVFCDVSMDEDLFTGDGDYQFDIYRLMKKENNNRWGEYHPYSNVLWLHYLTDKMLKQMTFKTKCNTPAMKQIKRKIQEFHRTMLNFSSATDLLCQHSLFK

| SMILES | IC50 [1] | IC50 [2] | IC50 [3] |
| --- | --- | --- | --- |
| CC1(C)Oc2c(ccnc2Cl)-c2[nH]c(C(N)=O)cc21 [Example 36] | 292 nM | 559 nM | – |
| C=Cc1c(C(N)=O)[nH]c2c1C(C)(C)Oc1cnccc1-2 [Example 33] | 90.6 nM | 12.3 nM | 29.5 nM |
| CCn1c(C(N)=O)c(C2CC2)c2c1-c1ccncc1OC2(C)C [Example 94] | 17.5 nM | 2.65 nM | – |
| CC1(C)Oc2cnccc2-c2[nH]c(C(N)=O)c(-c3cccc(S(N)(=O)=O)c3)c21 [Example 40] | 254 nM | 269 nM | – |
| Cn1c(C(=O)O)cc2c1-c1ccncc1OC2(C)C [Example 23] | 648 nM | 61.1 nM | 233 nM |
| CC1(C)Oc2cnccc2-c2[nH]c(C(N)=O)c(-c3ccc4[nH]ncc4c3)c21 [Example 65] | 933 nM | 10000 nM | 10000 nM |
| COC(=O)c1[nH]c2c(c1-c1ccccc1)C(C)(C)Oc1cnccc1-2 [LXIX] | – | 2000 nM | – |
| CC1(C)Oc2cnccc2-c2[nH]c(C(=O)O)cc21 [Example 2] | 306 nM | 146 nM | – |
| O=C(O)c1cc2c([nH]1)-c1ccncc1OC21CCCCC1 [Example 14] | 1000 nM | 23.9 nM | 3.01 nM |
| NC(=O)c1cc2c([nH]1)-c1ccncc1OC21CCCCC1 [Example 13] | 53.6 nM | 4.18 nM | 8.22 nM |
| CCn1c(C(N)=O)cc2c1-c1ccncc1OC21CCC1 [Example 66] | – | 0.191 nM | 1.41 nM |
| COc1cccc(-c2c(C(N)=O)[nH]c3c2C(C)(C)Oc2cnccc2-3)c1 [Example 85] | 260 nM | 127 nM | – |
| CCn1c(C(N)=O)c(Cl)c2c1-c1ccncc1OC21CCCCC1 [Example 105] | 8.82 nM | < 1.41 nM | – |
| CCn1c(C(N)=O)cc2c1-c1ccncc1O[C@@H]2C1CCOCC1 (single isomer, unassigned) [Example 96] | 355 nM | < 1.41 nM | – |
| COC(=O)c1cc2c([nH]1)-c1ccncc1OC2(C)C [VIII] | – | 677 nM | – |
| COCCNC(=O)c1cc2c([nH]1)-c1ccncc1OC2(C)C [Example 7] | 1020 nM | 1490 nM | – |

| SMILES | IC50 [1] | IC50 [2] | IC50 [3] |
| --- | --- | --- | --- |
| CC1(C)Oc2cnccc2-c2[nH]c(C(=O)NCCc3ccccc3)cc21 [Example 11] | 418 nM | 162 nM | – |
| CC(C)(C)OC(=O)N1CCC(NC(=O)c2cc3c([nH]2)-c2ccncc2OC3(C)C)CC1 [Example 5] | 18400 nM | 1870 nM | – |
| CC1(C)Oc2cnccc2-c2[nH]c(C(=O)NCc3ccccc3)cc21 [Example 8] | 305 nM | 340 nM | – |
| COC(=O)c1[nH]c2c(c1Br)C(C)(C)Oc1cnccc1-2 [LXVIII] | – | 780 nM | – |
| CC(C)NC(=O)c1cc2c([nH]1)-c1ccncc1OC2(C)C [Example 6] | 1780 nM | 2410 nM | – |
| CC1(C2(C)Oc3cnccc3-c3[nH]c(C(N)=O)cc32)COC1 (centres unmarked) [Example 49] | 5700 nM | 315 nM | – |
| CC(C)n1c(C(=O)O)cc2c1-c1ccncc1OC2(C)C [Example 26] | 49000 nM | 5940 nM | – |
| CC1(C)Oc2cnccc2-c2[nH]c(C(=O)N3CCOCC3)cc21 [Example 21] | 868 nM | 671 nM | – |
| CC1(C)Oc2c(ccnc2Cl)-c2[nH]c(C(=O)O)cc21 [Example 37] | 1650 nM | 6290 nM | – |
| NC(=O)c1cc2c([nH]1)-c1ccncc1OC21CCN(CCCC(F)(F)F)CC1 [Example 48] | 470 nM | 886 nM | – |
| COc1ccccc1-c1c2c(n(CCF)c1C(=O)NCCF)-c1ccncc1OC2(C)C [Example 78] | 33300 nM | 484 nM | – |
| NC(=O)c1cc2c([nH]1)-c1ccncc1OC21CCN(C2CC2)CC1 [Example 16] | 4280 nM | 5700 nM | – |
| O=C(O)c1cc2c([nH]1)-c1ccncc1OC21CCN(CC(F)(F)F)CC1 [Example 19] | 2950 nM | 652 nM | – |
| CC(C)n1c(C(N)=O)cc2c1-c1ccncc1OC2(C)C [Example 25] | 22300 nM | 5870 nM | – |
| COc1ccccc1-c1c(C(N)=O)[nH]c2c1C(C)(C)Oc1cnccc1-2 [Example 63] | 3960 nM | 55.4 nM | 229 nM |
